Series [1] deals with NLRC4. The experiment in a line: Alu RNA induced NLRC4 protein oligomerization in BMDM, Tris-glycine native PAGE. The following applies: Alu RNA 100 pmol, indicated time points (FIG. 4). The class given is cell-based, mouse. How it is done:
FIG. 4. Alu RNA (SEQ ID NO: 86) induced NLRC4 protein oligomerization. Mouse BMDM was treated with Alu RNA (SEQ ID NO: 86; 100 pmol) at the indicated time points. NLRC4 oligomers were detected by Tris-glycine native PAGE. Loading control show by Actin. […] The bands of oligomeric NLRC4 protein were indicated by black arrow.
(§1) The activated NLRC4 inflammasome undergoes oligomerization by assembling into high-molecular mass multiprotein complexes. We first investigated in situ assembling of NLRC4 and apoptosis speck (ASC) like protein complexes in response to SINE RNA treatment of BMDMs. Immunofluorescence studies show increased NLRC4 and ASC specks in SINE RNA-treated BMDMs compared to mock-treated cells (FIG. 3A). To assess NLRC4 inflammasome assembly, WT and NLRC4 KO BMDM cells were treated with Alu RNA (SEQ ID NO: 86). Disuccinimidyl suberate (DSS) cross-linked lysates were resolved using denaturing SDS-PAGE to detect ASC oligomers and cell lysates were resolved using native polyacrylamide gel electrophoresis (NATIVE-PAGE) to detect NLRC4 oligomerization. […] NLRC4/ASC oligomerization is essential for the cleavage of pro-caspase-1 into its active form p20 and IL-1β release.

In a further series the test system is RPE degeneration. As to the kind of experiment: Alu RNA induced RPE degeneration in mice, fundus images and ZO-1 staining. The class given is in vivo. To be noted: subretinal, WT mice (FIG. 26). How it is done:
FIGS. 25A and 25B. NLRC4 knockdown blocks Alu RNA (SEQ ID NO: 86) induced ASC oligomerization and RPE degeneration. Human RPE cell treated with siRNA target on NLRC4 (SMARTPOOL siRNA for NLRC4: CAACUGGGCUCCUCUGUAA; SEQ ID NO: 93) and NAIP (SMARTPOOL siRNA for NAIP: GUAAAGAGCUAUAUGGAUA; SEQ ID NO: 94), 24 hours later, treated with Alu RNA (SEQ ID NO: 86 at 100 pmol) FIG. 25A. […] The band of ASC oligomers was indicated by black arrow. […] The hyperdense areas due to the RPE degeneration in fundus images and ZO-1 disorganizations in RPE sheet are indicated by white arrows.
FIG. 26. […] Wilde type of C57/B6 mice were intravitreally injected with siRNA target on Ddx17 (siRNA for Ddx17: GGCUAGAUGUGGAAGAUGU; SEQ ID NO: 95), and two days later, Nlrc4^−/−, Naip1-6^−/−, mice and Ddx17 knockdown mice were subretinally injected with Alu RNA (SEQ ID NO: 86). […] The hyperdense areas due to the RPE degeneration in fundus images and ZO-1 disorganizations in RPE sheet are indicated by white arrows.
(§2) Next, we asked whether Alu RNA (SEQ ID NO: 86) also triggered NLRC4 inflammasome activation in human RPE cells. We performed immunofluorescence staining experiments to examine whether Alu RNA (SEQ ID NO: 86) can induce NLRC4 speck formation in human RPE cells. We noticed punctate structures resembling specks of NLRC4 in human RPE cells in response to Alu RNA (SEQ ID NO: 86) treatment (FIG. 24A). […] We further investigated downstream events of NLRC4 inflammasome activation by studying NLRC4-induced ASC oligomerization, a critical step involved in caspase-1 cleavage. NLRC4 siRNA, when co-administered with Alu RNA (SEQ ID NO: 86), blocked ASC oligomerization in vitro (FIG. 25A) and RPE degeneration in vivo (FIG. 25B).
We delivered Alu RNA (SEQ ID NO: 86) or Alu RNA (SEQ ID NO: 86)+siDDX17 subretinally in WT or NLRC4 KO or NAIP1-6 KO mice and examined for RPE degeneration using fundus photos and ZO-1 staining as described previously.

For another series, the target named is DDX17 (Homo sapiens, UniProt Q92841). As to the kind of experiment: DDX17 translocation in THP-1 cells, cell fractionation and immunoblot. It is filed as cell-based. The following applies: THP-1, Alu RNA 100 pmol (FIG. 36). The source says:
FIG. 36. Alu RNA (SEQ ID NO: 86) induces DDX17 translocation in human cells. Human monocytes (THP-1) were transfected with Alu RNA (SEQ ID NO: 86 at 100 pmol) using LIPOFECTAMINE™ 3000 brand transfection reagent (Lipo; ThermoFisher Scientific). Cell lysates were collected and subjected to cell fractionation. Immunoblots of DDX17 and Histone H3 were used to evaluate the subcellular distribution of DDX17. […] The bands of DDX17 in cell nucleus and cytoplasm were indicated by black arrows.
Human monocytes (THP-1) were treated with Alu RNA (SEQ ID NO: 86 at 100 pmol). Cell lysates were collected and subjected to cell fractionation. Immunoblots of DDX17 and Histone H3 were used to evaluate the subcellular distribution of DDX17.

Another series relates to ASC specks. The experiment in a line: SINE RNA induced ASC specks in BMDM, immunofluorescence. The class given is cell-based, mouse. To be noted: BMDMs, transfection vs Mock (FIG. 3A). How it is done:
FIGS. 3A and 3B. SINE RNA-induced ASC oligomerization is dependent on NLRC4 (BMDM). FIG. 3A. Immunofluorescence images of endogenous ASC specks and NLRC4 puncta in BMDMs after transfected with Alu (SEQ ID NO: 86) or B2 (SEQ ID NO: 88) RNA or transfection reagents only (Mock). […] Moreover, NLRC4 proteins assembled as puncta, and co-resided with ASC specks. FIG. 3B. ASC oligomerizations were evaluated in wild-type and Nlrc4^−/− BMDMs through cross-linking and western blot. […] The bands of oligomeric ASC protein were indicated by black arrow.
as §1

The test system of series [2] is NLRC4. As to the kind of experiment: Alu RNA induced NLRC4 oligomers in human RPE cells, native PAGE. The class given is cell-based. To be noted: Alu RNA transfection vs mock (FIG. 24B).
Description: FIGS. 24A and 24B. Alu RNA (SEQ ID NO: 86) induced NLRC4 activation in human RPE cells. To test whether Alu RNA (SEQ ID NO: 86) induces NLRC4 activation in human RPE, we transfected human RPE with Alu RNA (SEQ ID NO: 86 at 100 pmol). FIG. 24A. Immunofluorescence staining on NLRC4 show Alu RNA (SEQ ID NO: 86) induced cytosolic NLRC4 punctate in hRPE cells. The NLRC4 aggregates induced by Alu RNA (SEQ ID NO: 86) are indicated by white arrows. FIG. 24B. Alu RNA (SEQ ID NO: 86) induced NLRC4 (p-NLRC4) phosphorylation and oligomerization. Loading control show by Actin. NLRC4 oligomers were detected by Tris-glycine native PAGE. […] The band of NLRC4 oligomers is indicated by black arrow.
as §2

The text below walks through data of patent US20220280543A1, “DDX17 AND NLRC4 TARGETING FOR INFLAMMATORY DISEASES” (University of Virginia Patent Foundation, priority 2019, published 2022).

Chain of DDX17 (Q92841 whole entry, species assumed): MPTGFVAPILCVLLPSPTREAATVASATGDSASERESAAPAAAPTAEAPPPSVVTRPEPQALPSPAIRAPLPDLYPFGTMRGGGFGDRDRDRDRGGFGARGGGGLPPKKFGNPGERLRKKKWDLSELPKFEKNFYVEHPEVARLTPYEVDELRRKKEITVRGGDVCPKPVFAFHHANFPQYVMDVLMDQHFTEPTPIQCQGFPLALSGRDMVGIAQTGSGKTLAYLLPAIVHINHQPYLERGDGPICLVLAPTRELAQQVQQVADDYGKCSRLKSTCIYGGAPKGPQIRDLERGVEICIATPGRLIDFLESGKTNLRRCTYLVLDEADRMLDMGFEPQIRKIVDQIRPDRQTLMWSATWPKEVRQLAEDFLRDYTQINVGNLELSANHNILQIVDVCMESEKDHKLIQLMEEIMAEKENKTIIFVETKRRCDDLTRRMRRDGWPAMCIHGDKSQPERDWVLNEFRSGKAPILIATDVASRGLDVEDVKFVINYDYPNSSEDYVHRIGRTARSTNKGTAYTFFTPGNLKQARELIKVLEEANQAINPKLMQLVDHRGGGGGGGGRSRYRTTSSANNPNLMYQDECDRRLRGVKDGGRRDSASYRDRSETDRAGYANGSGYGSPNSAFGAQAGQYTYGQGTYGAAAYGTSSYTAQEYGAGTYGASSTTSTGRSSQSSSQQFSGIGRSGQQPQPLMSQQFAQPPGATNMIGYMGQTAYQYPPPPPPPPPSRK

For Alu RNA: human SINE RNA, SEQ ID NO: 86, the “formation of NLRC4 oligomers, BMDM” value in the series on NLRC4 [1] is “induces the formation of NLRC4 oligomers”. In the series on RPE degeneration, the “RPE degeneration induced by Alu RNA” value is “induced RPE degeneration”. Also, the “subcellular distribution of DDX17” value in the series with DDX17 is recorded as “induced DDX17 translocation from the nucleus to the cytoplasm”. Moreover, in the series on ASC specks, the “formation of ASC specks” value is “induced the formation of ASC specks”. The “formation of NLRC4 oligomers, human RPE cells” value with NLRC4 [2] is “induced the formation of NLRC4 oligomers”.
